Where a name gives a salt, the structure may show the parent alone.
Assay: Particle size distribution (Sympatec Helos laser diffraction)
Type: physicochemical
Settings: for Particle size distribution, quantile 5% / Particle size distribution, quantile 10% / Particle size distribution, quantile 50% (median particle size) / Particle size distribution, quantile 90% / Particle size distribution, quantile 95%: Sympatec Helos
From the text: As used herein, “particle size distribution” means the distribution of equivalent spherical diameters as determined by laser diffraction at 1 bar dispersive pressure in a Sympatec Helos equipment. “Median particle size”, correspondingly, means the median of said particle size distribution.

In the case of Br.CN(C)CCCC1(c2ccc(F)cc2)OCc2cc(C#N)ccc21 (single isomer, unassigned) [Example 1, Citalopram hydrobromide], the “Particle size distribution, quantile 5%” value is reported as 8.23 μm, the “Particle size distribution, quantile 10%” value is reported as 16.54 μm and the “Particle size distribution, quantile 50% (median particle size)” value is reported as 96.87 μm. For the same compound, the “Particle size distribution, quantile 90%” value was 342.89 μm and the “Particle size distribution, quantile 95%” value was 465.43 μm.

With Br.CN(C)CCCC1(c2ccc(F)cc2)OCc2cc(C#N)ccc21 (single isomer, unassigned) [Example 3, Citalopram hydrobromide] the “Particle size distribution, quantile 5%” value was 0.82 μm, the “Particle size distribution, quantile 10%” value was 1.19 μm and the “Particle size distribution, quantile 50% (median particle size)” value was 14.04 μm. The “Particle size distribution, quantile 90%” value was 72.27 μm and the “Particle size distribution, quantile 95%” value was 96.96 μm.

For CN(C)CCCC1(c2ccc(F)cc2)OCc2cc(C#N)ccc21 (stereo not shown) [citalopram hydrobromide, reference compound], the Particle size (product of the process used for the preparation of citalopram hydrobromide (background)) was 2-20 μm.

With Br.CN(C)CCCC1(c2ccc(F)cc2)OCc2cc(C#N)ccc21 (single isomer, unassigned) [Example 2, Citalopram hydrobromide] the “Particle size distribution, quantile 5%” value was 6.67 μm, the “Particle size distribution, quantile 10%” value was 11.97 μm and the “Particle size distribution, quantile 50% (median particle size)” value was 52.70 μm. For the same compound, the “Particle size distribution, quantile 90%” value was 352.23 μm and the “Particle size distribution, quantile 95%” value was 549.42 μm.

Source: US6849659B2, “Pharmaceutical composition containing citalopram” (H. Lundbeck A/S, priority 2000, dated 2005)
